Source: patent US20050239656A1, “Pyridine compounds or salts thereof and herbicides containing the same” (priority 2002, published 2005)

Tests used:
rice (var. Nihonbare) = assay: Test Example 3: paddy pot test, transplanted rice; type: in vivo, Oryza sativa L.; details: applied 4th day after transplantation, visually observed 21st day after application, 0 = non-treated, 100 = complete kill
In short: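 Rice (var. Nihonbare) at 2 leaf stage transplanted 3 cm deep into puddled paddy soil under 3–4 cm flooding; on day 4 after transplanting, diluted wettable powder or emulsifiable concentrate applied by pipette under submerged conditions at a set active-ingredient dose. Growth scored visually 21 days after application, 0 (untreated) to 100 (complete kill) %.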

prickly sida = assay: Test Example 2: soil surface treatment, upland pot test; type: in vivo, Sida spinosa L.; details: active ingredient 500 g/ha, observed 20th to 28th day
In short: (§1)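 Pre-emergence soil-surface spray, 1 d after sowing; 1/170,000 ha pots, upland soil; WP or EC formulation, set a.i. rate, 1,500 L/ha water; visual growth-control score 0–100% at days 20–28 post-treatment.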

redroot pigweed = assay: as above; type: in vivo, Amaranthus retroflexus L.; details: active ingredient 500 g/ha, observed 20th to 28th day
In short: as §1

corn = assay: as above; type: in vivo, Zea mays L.; details: active ingredient 500 g/ha, observed 20th to 28th day
In short: as §1

green foxtail = assay: as above; type: in vivo, Setaria viridis L.; details: active ingredient 500 g/ha, observed 20th to 28th day
In short: as §1

japanese ribbon wapato = assay: Test Example 3: paddy pot test, application under submerged conditions; type: in vivo, Sagittaria pygniaea; details: submerged application at primary leaf stage, visually observed 14 days after application, 0 = non-treated, 100 = complete kill
In short: (§2)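 Visual growth-control rating (0 = untreated, 100 = complete kill) 14 days after treatment. The formulated compound, as a diluted wettable powder or emulsifiable concentrate, went into 3–4 cm flood water at a predetermined active-ingredient dose once the weeds reached 0.5 leaf stage (wapato: primary leaf stage).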

japanese bulrush = assay: as above; type: in vivo, Scirpus juncoides; details: submerged application at 0.5 leaf stage, visually observed 14 days after application, 0 = non-treated, 100 = complete kill
In short: as §2

soybean = assay: Test Example 2: soil surface treatment, upland pot test; type: in vivo, Glycine max Merr.; details: active ingredient 500 g/ha, observed 20th to 28th day
In short: as §1

barnyardgrass [1] = assay: as above; type: in vivo, Echinochloa crus-galli L.; details: active ingredient 500 g/ha, observed 20th to 28th day
In short: as §1

rice = assay: as above; type: in vivo, Oryza sativa L.; details: active ingredient 500 g/ha, observed 20th to 28th day
In short: as §1

crabgrass = assay: as above; type: in vivo, Digitaria sanguinalis L.; details: active ingredient 500 g/ha, observed 20th to 28th day
In short: as §1

velvetleaf = assay: as above; type: in vivo, Abutilon theophrasti MEDIC.; details: active ingredient 500 g/ha, observed 20th to 28th day
In short: as §1

barnyardgrass [2] = assay: Test Example 3: paddy pot test, application under submerged conditions; type: in vivo, Echinochloa crus-galli L.; details: submerged application at 0.5 leaf stage, visually observed 14 days after application, 0 = non-treated, 100 = complete kill
In short: as §2

## CCc1ccc(CC(=O)N(C)C(c2cnccc2C(F)(F)F)C(C)C)cc1 (centres unmarked) [I-95]
Rice (var. Nihonbare); active ingredient 250 g/ha
  Growth controlling degree (%) Rice: 0%
Prickly sida
  Growth controlling degree (%) Prickly sida: 80%
Redroot pigweed
  Growth controlling degree (%) Redroot pigweed: 60%
corn
  Growth controlling degree (%) Corn: 10%
Green foxtail
  Growth controlling degree (%) Green foxtail: 90%
Japanese ribbon wapato; active ingredient 250 g/ha
  Growth controlling degree (%) Japanese ribbon wapato: 20%
Japanese bulrush; active ingredient 250 g/ha
  Growth controlling degree (%) Japanese bulrush: 98%
soybean
  Growth controlling degree (%) Soyabean: 30%
Barnyardgrass [1]
  Growth controlling degree (%) Barnyardgrass: 95%
rice
  Growth controlling degree (%) Rice: 10%
crabgrass
  Growth controlling degree (%) Crabgrass: 98%
velvetleaf
  Growth controlling degree (%) Velvetleaf: 30%
Barnyardgrass [2]; active ingredient 250 g/ha
  Growth controlling degree (%) Barnyardgrass: 100%

## CC(C)C(c1cnccc1C(F)(F)F)N(C)C(=O)CCc1ccccc1 (centres unmarked) [I-169]
Rice (var. Nihonbare); active ingredient 250 g/ha
  Growth controlling degree (%) Rice: 10%
Prickly sida
  Growth controlling degree (%) Prickly sida: 90%
Redroot pigweed
  Growth controlling degree (%) Redroot pigweed: 70%
corn
  Growth controlling degree (%) Corn: 40%
Green foxtail
  Growth controlling degree (%) Green foxtail: 100%
Japanese ribbon wapato; active ingredient 250 g/ha
  Growth controlling degree (%) Japanese ribbon wapato: 0%
Japanese bulrush; active ingredient 250 g/ha
  Growth controlling degree (%) Japanese bulrush: 50%
soybean
  Growth controlling degree (%) Soyabean: 30%
Barnyardgrass [1]
  Growth controlling degree (%) Barnyardgrass: 100%
rice
  Growth controlling degree (%) Rice: 40%
crabgrass
  Growth controlling degree (%) Crabgrass: 98%
velvetleaf
  Growth controlling degree (%) Velvetleaf: 20%
Barnyardgrass [2]; active ingredient 250 g/ha
  Growth controlling degree (%) Barnyardgrass: 100%

## CC(C)C(c1cnccc1C(F)(F)F)N(C)C(=O)Cc1ccsc1 (centres unmarked) [I-170]
Rice (var. Nihonbare); active ingredient 250 g/ha
  Growth controlling degree (%) Rice: 0%
Prickly sida
  Growth controlling degree (%) Prickly sida: 95%
Redroot pigweed
  Growth controlling degree (%) Redroot pigweed: 30%
corn
  Growth controlling degree (%) Corn: 50%
Green foxtail
  Growth controlling degree (%) Green foxtail: 100%
Japanese ribbon wapato; active ingredient 250 g/ha
  Growth controlling degree (%) Japanese ribbon wapato: 70%
Japanese bulrush; active ingredient 250 g/ha
  Growth controlling degree (%) Japanese bulrush: 100%
soybean
  Growth controlling degree (%) Soyabean: 35%
Barnyardgrass [1]
  Growth controlling degree (%) Barnyardgrass: 100%
rice
  Growth controlling degree (%) Rice: 30%
crabgrass
  Growth controlling degree (%) Crabgrass: 98%
velvetleaf
  Growth controlling degree (%) Velvetleaf: 30%
Barnyardgrass [2]; active ingredient 250 g/ha
  Growth controlling degree (%) Barnyardgrass: 100%

## CC(C)C(c1cnccc1C(F)(F)F)N(C)C(=O)C=Cc1ccc(F)cc1 (centres unmarked) [I-172]
Rice (var. Nihonbare); active ingredient 250 g/ha
  Growth controlling degree (%) Rice: 0%
Prickly sida
  Growth controlling degree (%) Prickly sida: 80%
Redroot pigweed
  Growth controlling degree (%) Redroot pigweed: 60%
corn
  Growth controlling degree (%) Corn: 10%
Green foxtail
  Growth controlling degree (%) Green foxtail: 95%
Japanese ribbon wapato; active ingredient 250 g/ha
  Growth controlling degree (%) Japanese ribbon wapato: 95%
Japanese bulrush; active ingredient 250 g/ha
  Growth controlling degree (%) Japanese bulrush: 98%
soybean
  Growth controlling degree (%) Soyabean: 0%
Barnyardgrass [1]
  Growth controlling degree (%) Barnyardgrass: 40%
rice
  Growth controlling degree (%) Rice: 20%
crabgrass
  Growth controlling degree (%) Crabgrass: 98%
velvetleaf
  Growth controlling degree (%) Velvetleaf: 10%
Barnyardgrass [2]; active ingredient 250 g/ha
  Growth controlling degree (%) Barnyardgrass: 100%

## CC=CC(=O)N(C)C(c1cnccc1C(F)(F)F)C(C)C (centres unmarked) [I-180]
Rice (var. Nihonbare); active ingredient 500 g/ha
  Growth controlling degree (%) Rice: 30%
Prickly sida
  Growth controlling degree (%) Prickly sida: 80%
Redroot pigweed
  Growth controlling degree (%) Redroot pigweed: 80%
corn
  Growth controlling degree (%) Corn: 10%
Green foxtail
  Growth controlling degree (%) Green foxtail: 100%
Japanese ribbon wapato; active ingredient 500 g/ha
  Growth controlling degree (%) Japanese ribbon wapato: 60%
Japanese bulrush; active ingredient 500 g/ha
  Growth controlling degree (%) Japanese bulrush: 100%
soybean
  Growth controlling degree (%) Soyabean: 10%
Barnyardgrass [1]
  Growth controlling degree (%) Barnyardgrass: 100%
rice
  Growth controlling degree (%) Rice: 50%
crabgrass
  Growth controlling degree (%) Crabgrass: 100%
velvetleaf
  Growth controlling degree (%) Velvetleaf: 50%
Barnyardgrass [2]; active ingredient 500 g/ha
  Growth controlling degree (%) Barnyardgrass: 98%
